# Results from publication PMC9858427, “Design, synthesis and biological evaluation of 2-((4-sulfamoylphenyl)amino)-pyrrolo[2,3-d]pyrimidine derivatives as CDK inhibitors” (Journal of Enzyme Inhibition and Medicinal Chemistry, 2023).
# Entries after “also recorded” stand apart in the source; their conditions may differ. Read-outs that look alike come from different tables or passages of the source.
# What was measured:
# MIA PaCa-2 cells = test: Cell cycle analysis by PI staining and flow cytometry; format: cell-based, human; settings: 24 h treatment
# Description: MIA PaCa-2 cells were incubated with test compound at given concentration for indicated time in 6 well plates. The cells were collected and washed with cold PBS for two times. For cell cycle analysis, cells were fixed with 1 ml of 70% ethanol at −20 °C overnight then re-suspended with 400 µL binding buffer at density of 10^6 cells/mL, with PI staining for 30 min at room temperature. DNA contents were analysed by a BD Accuri C6 flow cytometry (BD Biosciences, Mountain View, CA, USA). For cell apoptosis analysis, after centrifugation and removal of the supernatants, cells were resuspended in 500 µL of 1 ×binding buffer which was then added to 5 µL of annexin V-FITC and incubated at room temperature for 10 min. After adding 10 µL of PI the cells were incubated at room temperature for another 10 min, and their fluorescence intensity evaluated by a BD Accuri C6 (BD Biosciences, Mountain View, CA, USA).
# PANC-1 = test: MTT proliferation assay in PANC-1 cells; format: cell-based; settings: Homo sapiens, 72 h drug exposure
# Description: (§1) The human pancreatic carcinoma MIA PaCa-2 was purchased from China Centre for Type Culture Collection, AsPC-1 and BxPC-3 cell Lines were purchased from Cell Centre of the Institute of Basic Medical Sciences, Chinese Academy of Medical Sciences and Peking Union Medical College. PANC-1 was kindly provided by Nankai Hospital (Tianjin, China). These cancer cell lines were cultured according to the manufacturer’s instruction.
# (§2) Cells were planted in 96-well plates at a density of 3000–4000 cells per well and incubated at 37 °C in a humidified CO2 incubator for 24 h. Then 3-fold diluted concentrations of tested compound were added respectively which was dissolved by DMSO in the ratio of 1:1000. After indicated incubation period, MTT was added to each well and incubated for 4 h at 37 °C. Then, the supernatant was discarded gently, and the precipitate was dissolved in 100 µL of DMSO in each well. The absorbance (A) at 570 nm was detected with a microplate reader (Multiskan MK3; Thermo Fisher Scientific, MA, USA). Vehicle-treated cells were served as the control for the calculation of relative cell viability (%) of treated group at single concentration. IC50 value was calculated directly from the inhibition curve of serial dilution of test compound and was expressed as mean ± SD using the SPSS statistical software (SPSS17.0 Inc., Chicago, IL, USA).
# BxPC-3 = test: MTT proliferation assay in BxPC-3 cells; format: cell-based; settings: Homo sapiens, 72 h drug exposure
# Description: as §1, §2
# [1] = Drug concentration in tumour tissue and plasma of tumour-bearing mice; format: in vivo, BALB/C nude mice; settings: for concentration at 1 h / concentration at 4 h: female, BALB/C nude, mouse, tumour-bearing mice (n = 3); for concentration at 1 h: 1.0 h after 30 mg/kg single oral dosing; for concentration at 4 h: 4.0 h after 30 mg/kg single oral dosing
# Description: AsPC-1 (5 × 10^7) cells were injected subcutaneously into 5-week-old female BALB/C nude mice (Beijing Huafukang Bioscience CO. Inc, Beijing, China). After two weeks, mice were omogenizamised and treated with vehicle, gemcitabine (GCTB), or test compound. Blank solvent and test compound was administered by oral gavage (10 ml/kg) with once daily of five days and followed by 2 days off in each week, GCTB was given once a week by 50 mg/kg intraperitoneal injection. Mice were inspected daily for clinical signs, both tumour diameters and body weight were determined 3 times weekly. Tumour volumes were calculated according to the formula “tumor volume (V) = length × width^2/2”. Median TGI values were calculated as follows: TGI = 100 × [1-(Vtreated group at day20-Vtreated group at day1)/(Vvehicle group at day20-Vvehicle group at day1)]. Data were plotted as average with SD in the graphical representation of tumour growth. The p values obtained from the two-way ANOVA analysis. Meanwhile, main organs of mice were collected, formalin-fixed and paraffin-embedded for pathological analysis by H&E dyeing. For drug concentration determination, blood and tumour tissues were collected at indicated time after single administration. Standard curve of test compound was established in the acquisition mode of SIM using a SHIMADZU LC-MS instrument. Blood kept in anticoagulant tube coated with heparin sodium was centrifuged to provide the supernatant, which was followed by added with 3-fold acetonitrile to precipitate plasma protein. After centrifugation at 10 × 10^3 for 5 min, the supernatant was injected directedly into LC-MS instrument for quantification of drug concentration. As for tumour tissues, omogenizationation (Precellys Evolution) was done after weighed accurately and added with 3-fold saline. After centrifugation under same condition as plasma samples, supernatant was separated and injected into LC-MS for quantification.
# CDK9/cyclinT1 = CDK9/cyclinT1 (Homo sapiens, UniProt P50750); test: CDK9/cyclinT1 Lance Ultra Assay, single concentration screen; format: biochemical; settings: 50 nM, ATP concentration at Km, read-out: CDK9 inhibitory rate (%) @ 50nM
# Chain of CDK9/cyclinT1 (P50750 whole entry): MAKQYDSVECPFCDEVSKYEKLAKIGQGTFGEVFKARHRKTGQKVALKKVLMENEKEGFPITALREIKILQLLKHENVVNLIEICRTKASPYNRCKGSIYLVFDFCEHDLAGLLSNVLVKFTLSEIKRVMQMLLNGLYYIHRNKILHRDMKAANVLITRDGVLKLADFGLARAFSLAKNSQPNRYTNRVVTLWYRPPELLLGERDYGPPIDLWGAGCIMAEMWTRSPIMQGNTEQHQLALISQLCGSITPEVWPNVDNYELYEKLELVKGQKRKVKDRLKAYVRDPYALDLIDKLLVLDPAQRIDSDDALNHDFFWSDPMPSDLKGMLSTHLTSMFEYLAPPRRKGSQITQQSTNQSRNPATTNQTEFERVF
# Chain of CDK9/cyclinT1 (O60563 whole entry partner): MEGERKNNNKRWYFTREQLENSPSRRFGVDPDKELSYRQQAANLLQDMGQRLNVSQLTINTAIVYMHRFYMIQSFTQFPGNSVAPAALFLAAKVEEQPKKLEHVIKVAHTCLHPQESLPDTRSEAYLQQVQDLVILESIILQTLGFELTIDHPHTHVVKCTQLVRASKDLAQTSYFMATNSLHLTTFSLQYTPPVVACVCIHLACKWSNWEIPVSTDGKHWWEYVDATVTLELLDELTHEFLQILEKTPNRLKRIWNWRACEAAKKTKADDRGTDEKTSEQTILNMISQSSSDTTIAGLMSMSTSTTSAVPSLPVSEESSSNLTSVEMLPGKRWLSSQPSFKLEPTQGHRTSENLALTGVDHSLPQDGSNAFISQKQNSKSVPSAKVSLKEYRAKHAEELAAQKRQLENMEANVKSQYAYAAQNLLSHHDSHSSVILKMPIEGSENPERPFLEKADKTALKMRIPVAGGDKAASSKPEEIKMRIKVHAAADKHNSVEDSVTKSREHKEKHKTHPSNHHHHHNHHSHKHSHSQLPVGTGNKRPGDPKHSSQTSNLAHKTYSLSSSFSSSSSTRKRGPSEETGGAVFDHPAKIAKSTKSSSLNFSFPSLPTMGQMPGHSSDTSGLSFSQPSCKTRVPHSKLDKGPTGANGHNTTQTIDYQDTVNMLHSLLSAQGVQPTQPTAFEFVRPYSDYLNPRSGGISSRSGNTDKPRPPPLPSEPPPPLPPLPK
# Description: CDK kinase activity (IC50 values and inhibitory rate at single concentration) was measured using the kinase profiling services (Shanghai ChemPartner Co., Ltd). Compounds were sent to ChemPartner as a solution in DMSO at concentration of 10 mM.
# [2] = tested on: AsPC-1 cell-derived xenograft; test: AsPC-1 cell-derived xenograft mice model, in vivo efficacy; parameters: species or system BALB/C nude mice; settings: five days on two days off per week
# Description: Synthetic compound was administered as a suspension or solution in the saline with 5% DMSO and 5% Solutol. GCTB was dissolved in saline. All of the experiments were approved by the Institutional Animal Care and Use Committee of Institute of Medicinal Biotechnology. All experiments were carried out under ethics committee–approved protocols and in compliance with the guidelines for the care of laboratory animals of Institute of Medicinal Biotechnology, CAMS.
# AsPC-1 (5 × 10^7) cells were injected subcutaneously into 5-week-old female BALB/C nude mice (Beijing Huafukang Bioscience CO. Inc, Beijing, China). After two weeks, mice were omogenizamised and treated with vehicle, gemcitabine (GCTB), or test compound. Blank solvent and test compound was administered by oral gavage (10 ml/kg) with once daily of five days and followed by 2 days off in each week, GCTB was given once a week by 50 mg/kg intraperitoneal injection. Mice were inspected daily for clinical signs, both tumour diameters and body weight were determined 3 times weekly. Tumour volumes were calculated according to the formula “tumor volume (V) = length × width^2/2”. Median TGI values were calculated as follows: TGI = 100 × [1-(Vtreated group at day20-Vtreated group at day1)/(Vvehicle group at day20-Vvehicle group at day1)]. Data were plotted as average with SD in the graphical representation of tumour growth. The p values obtained from the two-way ANOVA analysis. Meanwhile, main organs of mice were collected, formalin-fixed and paraffin-embedded for pathological analysis by H&E dyeing. For drug concentration determination, blood and tumour tissues were collected at indicated time after single administration. Standard curve of test compound was established in the acquisition mode of SIM using a SHIMADZU LC-MS instrument. […] After centrifugation at 10 × 10^3 for 5 min, the supernatant was injected directedly into LC-MS instrument for quantification of drug concentration. […] After centrifugation under same condition as plasma samples, supernatant was separated and injected into LC-MS for quantification.
# [3] = tested on: phosphorylation of Rb and RNA polymerase II, Mcl-1 and c-Myc protein; test: Immunoblots of CDK downstream proteins in MIA PaCa-2 cells; format: cell-based, human; settings: 6 h exposure
# Description: Harvested cells were lysed in 20 mmol/L Tris pH 7.7, 100 mmol/L NaCl, 20 mmol/L β-glycerophosphate, 5 mmol/L MgCl2, 1 mmol/L NaF, 0.1% Triton X-100, 5% glycerol plus freshly added 1 mmol/L DTT, 0.1 µmol/L okadaic acid, 1 mmol/L sodium vanadate, and cOmplete Mini Protease Inhibitor Tablets (Roche, #11836170001). For SDS-PAGE, equal amounts of protein/lane were loaded. After gel transfer onto PDV membrane, immunoblots were performed using the following antibodies: CDK9 (Cell Signalling Technology #C12FT; 1:1,000), RNA polymerase II (Abcam #ab5131; 1:1000), MCL-1 (Abcam #Y37; […] (Cell Signalling Technology #d2b12; 1:1,000), c-Myc (Abcam #YB69; 1:1000). Secondary antibodies were from Cell Signalling Technology (#7076 or #7074). ECL detection was performed.
# AsPC-1 = test: MTT proliferation assay in AsPC-1 cells; format: cell-based; settings: Homo sapiens, ASPC1; 72 h drug exposure
# Description: as §1, §2
# [4] = plasma, read-out: Drug concentration (µM) Plasma
# [5] = read-out: Drug concentration (µM) Tumour
smiles,measurement,setting,value
"CN(C)C(=O)c1cc2cnc(Nc3ccc(S(N)(=O)=O)cc3)nc2n1C1CCCC1 [compound 2g, 7-Cyclopentyl-N,N-dimethyl-2-((4-sulfamoylphenyl)amino)-7H-pyrrolo[2,3-d]pyrimidine-6-carboxamide]",effect on cell cycle,MIA PaCa-2 cells; 0.1 µM,cell cycle arrest at G1 phase
same,effect on cell cycle,MIA PaCa-2 cells; 0.3 and 1.0 µM,modest G2/M-arrested effect
same,IC50,PANC-1,11 ± 4.97 µM
same,IC50,BxPC-3,0.226 ± 0.065 µM
same,drug concentration in plasma and tumour tissue relative to cellular IC50 value,"[1]; 30 mg/kg single oral dosing, both plasma and tumour tissue",higher than 2 fold
same,concentration at 1 h,[1]; [4],7.46 ± 1.95 µM
same,concentration at 4 h,[1]; [4],0.53 ± 0.41 µM
same,concentration at 1 h,[1]; [5],3.13 ± 0.64 µM
same,concentration at 4 h,[1]; [5],0.48 ± 0.34 µM
same,inhibition at 0.05 µM,CDK9/cyclinT1,97.8%
same,tumour growth inhibition (TGI),"[2]; oral 30 mg/kg, 3-week administration",12%
same,reduction of tumour volume compared to vehicle group,"[2]; oral 60 mg/kg, 3 weeks",up to 46%
same,Mcl-1 and c-Myc protein level,[3],down-regulation of Mcl-1 and c-Myc protein
same,phosphorylation of Rb and RNA polymerase II,[3],down-regulation of phosphorylated Rb protein; also recorded: inhibited the phosphorylation of Rb and RNA polymerase II
same,IC50,AsPC-1,1.4 ± 0.034 µM
